{"source": "patent US7531164B2", "about": "(priority 2005, dated 2009)", "key": {"HIV (denoted NL4-3)": {"system": "HIV (denoted NL4-3)", "type": "cell-based", "settings": "NL4-3 envelope"}, "VSV": {"system": "VSV", "type": "cell-based"}, "AMLV": {"system": "AMLV", "type": "cell-based", "settings": "AMLV envelope"}, "hepatitis C": {"system": "hepatitis C", "experiment": "Working Example XI: transfusion of hepatitis C infected whole blood containing L-NMA", "type": "in vivo, human", "settings": "whole blood containing 1 gm L-NMA per unit, infected with hepatitis C", "from_the_text": "Whole blood containing 1 gm L-NMA per unit is transfused into a patient."}, "[1]": {"experiment": "Working Example XII: atherosclerosis patient, anti-VEGFR plus NO inhibitor/scavenger", "type": "in vivo, human", "settings": "2 gms/day L-NMA or 10 mg/day vitamin B-12 with 100 mg/kg anti-VEGFR three times a week; six months later", "protocol": "A person with atherosclerosis is administered 100 mg/kg anti-VEGFR three times a week via infusion and 2 gms/day of L-NMA or 10 mg/day vitamin B-12."}, "[2]": {"system": "EGFR expressing metastatic colorectal cancer", "experiment": "Working Example XIII: EGFR expressing metastatic colorectal cancer patient", "type": "in vivo, human", "settings": "5 gm L-NMA or 10 mg vitamin B12 infused concurrently with cebuximab", "protocol": "A person with EGFR expressing metastatic colorectal cancer is given an initial loading dose of 400 mg/m^2 cebuximab as a 120 minute infusion at 2.5 mL/min with weekly maintenance doses of 250 mg/M^2 over 60 minutes at 2.5 mL/min. Concurrently the patient is infused with 5 gm L-NMA or 10 mg vitamin B12."}, "[3]": {"experiment": "Working Example XIV: unstable angina patient, abciximab plus NO inhibitor/scavenger", "type": "in vivo, human", "settings": "L-NMA (5g) or 10 mg vitamin B-12 IV with abciximab and heparin; at 30 days", "protocol": "A patient with unstable angina presents to the emergency room.\nAbciximab is administered at 0.25 mg/kg as an intravenous bolus followed by infusion of […] for 12 hours. Heparin is concurrently administered in a different line with an initial dosage of 70 μg/kg with continuing infusion to maintain ACT of 200-300.\nL-NMA (5g) or 10 mg vitamin B-12 is administered IV through a different line.\nNeed for urgent revascularization is only 2% at 30 days."}, "[4]": {"experiment": "Working Example IV: beta agonist response in heart failure patient", "type": "in vivo, human", "settings": "0.1 mg/kg LNMA for 24 hours; improves from 3 L/min", "protocol": "A person with heart failure is admitted to a hospital for a dobutamine holiday (where a congestive heart failure patient spends 1-2 days in the hospital to receive a dobutamine drip every month or so). The patient is administered 0.1 mg/kg LNMA for 24 hours. Beta agonist sensitive response as measured by cardiac output improves from 3 L/min. to 3.5 L/min."}, "HIV": {"system": "HIV", "experiment": "Working Example I: prophylaxis after exposure to HIV positive partner", "type": "in vivo, human", "settings": "1 gm L-NMMA Q 6 hrs for 3 days with AZT 600 mg; day 7", "protocol": "A person finds that their partner the previous night is HIV positive. They present to the Emergency Room where they are given a prophylactic dose of AZT (600 mg dose) and a dose of 1 gm L-NMMA Q 6 hrs for 3 days. Blood titers for HIV are restive at day 7."}, "influenza A": {"system": "influenza A", "experiment": "Working Example XVII: prophylaxis in immunocompromised patient exposed to influenza", "type": "in vivo, human", "settings": "5 gms/day L-NMA p.o. for one week, then amantadine 100 mg p.o. b.i.d. for two weeks", "protocol": "An immunocompromised patient is exposed to a patient diagnosed with influenza. The patient is given 5 gms/day L-NMA p.o. After one week the patient tests positive for influenza A and L-NMA administration is stopped and the patient is given amantadine, 100 mg p.o., b.i.d. for two weeks."}, "[5]": {"experiment": "Working Example V: asthma exacerbation frequency", "type": "in vivo, human", "settings": "1 gm/day LNMA four times a week for a year; normally four exacerbations of asthma per year", "from_the_text": "An asymptomatic person who normally has four exacerbations of asthma per year is given 1 gm/day LNMA four times a week for a year. Exacerbation frequency decreases to once a year."}, "colon cancer": {"system": "colon cancer", "experiment": "Working Example III: prophylaxis of colon cancer in immunocompromised patient", "type": "in vivo, human", "settings": "5 gm LNMA or 10 mg vitamin B12 infused concurrently with cetuximab; two years later", "protocol": "An immunocompromised patient at risk for colon cancer is given an initial loading dose of 200 mg/M^2 cetuximab as a 120 minute infusion with weekly maintenance doses of 125 mg/M^2 over 60 minutes weekly. Perfusion rate is 4 mL/min. Concurrently the patient is infused with 5 gm LNMA or 10 mg vitamin B12.\nFor each 50 ml vial: • 100 mg cetuximab • at a concentration of 2 mg/ml • 1mg LNMA or 2 mg Vitamin B-12 • 8.48 mg/ml sodium chloride • 1.88 mg/ml sodium phosphate dibasic heptahydrate • 0.42 mg/ml sodium phosphate monohydrate • water for injection to […]\nThe composition is administered in the case of Working Example III."}, "E.coli and HIV": {"system": "E.coli and HIV", "experiment": "Working Example II: prophylaxis after exposure to blood infected by E.coli and HIV", "type": "in vivo, human", "settings": "B12 10 mg with AZT 600 mg and ampicillin 1 gm for 6 days; at a week", "protocol": "A patient is exposed to blood infected by “E.coli” and HIV following coronary artery bypass surgery. AZT (prophylactic dose of 600 mg) and B12 (which scavenges NO) (dose 10 mg) are given in combination with ampicillin (prophylactic dose of 1 gm) for 6 days Bacterial and HIV titer are undetectable at a week."}, "[6]": {"settings": "compared to envelope protein with no anti-CD4 or inhibitor"}}, "data": [{"smiles": "COC(=O)[C@@H](N)CCCNC(=N)N[N+](=O)[O-]", "note": "[Inhibitor A, N^G-nitro-L-arginine methyl ester]", "values": [{"measurement": "Mean (cells infected)", "setting": "HIV (denoted NL4-3); […], no-inhibitor NL4-3 mean 108400, cells only 66", "result": 50359}, {"measurement": "% Infection", "setting": "HIV (denoted NL4-3); [6]", "result": 46.5, "unit": "%"}, {"measurement": "% Infection", "setting": "VSV", "result": 41.9, "unit": "%"}, {"measurement": "Mean (cells infected)", "setting": "VSV", "result": 120209}, {"measurement": "Mean (cells infected)", "setting": "AMLV; […], no-inhibitor AMLV mean 164904", "result": 60090}, {"measurement": "% Infection", "setting": "AMLV; [6]", "result": 36.4, "unit": "%"}]}, {"smiles": "CNC(=N)NCCC[C@H](N)C(=O)O", "note": "[L-NMA, L-methylarginine]", "values": [{"measurement": "development of hepatitis C", "setting": "hepatitis C", "result": "does not develop hepatitis C"}, {"measurement": "plaque destabilization and heart attack", "setting": "[1]", "result": "plaque is not destabilized and no heart attack has occurred"}, {"measurement": "disease related symptoms", "setting": "[2]", "result": "Improvement in disease related symptoms is noted"}, {"measurement": "Need for urgent revascularization", "setting": "[3]", "result": 2, "unit": "%"}, {"measurement": "Beta agonist sensitive response as measured by cardiac output", "setting": "[4]", "result": 3.5, "unit": "L/min"}, {"measurement": "Blood titers for HIV", "setting": "HIV", "result": "restive"}, {"measurement": "Flu symptoms", "setting": "influenza A", "result": "Flu symptoms disappear"}, {"measurement": "Exacerbation frequency", "setting": "[5]", "result": "once a year"}, {"measurement": "colon cancer status", "setting": "colon cancer", "result": "colon cancer free"}]}, {"smiles": "C/C1=C2/[N-][C@H]([C@H](CC(N)=O)[C@@]2(C)CCC(=O)NC[C@@H](C)OP(=O)([O-])O[C@H]2[C@@H](O)[C@@H](n3cnc4cc(C)c(C)cc43)O[C@@H]2CO)[C@]2(C)N=C(/C(C)=C3N=C(/C=C4N=C1[C@@H](CCC(N)=O)C\\4(C)C)[C@@H](CCC(N)=O)[C@]\\3(C)CC(N)=O)[C@@H](CCC(N)=O)[C@]2(C)CC(N)=O.[Co+3].[OH-]", "note": "[vitamin B12, hydroxocobalamin]", "values": [{"measurement": "plaque destabilization and heart attack", "setting": "[1]", "result": "plaque is not destabilized and no heart attack has occurred"}, {"measurement": "Bacterial and HIV titer", "setting": "E.coli and HIV", "result": "undetectable"}, {"measurement": "disease related symptoms", "setting": "[2]", "result": "Improvement in disease related symptoms is noted"}, {"measurement": "Need for urgent revascularization", "setting": "[3]", "result": 2, "unit": "%"}, {"measurement": "colon cancer status", "setting": "colon cancer", "result": "colon cancer free"}]}]}
